Source: PMC4413606, “Identification of a new class of natural product MDM2 inhibitor: In vitro and in vivo anti-breast cancer activities and target validation” (Oncotarget, 2014)
pKi: −log10 of the molar value.

Target: T1, MDM2 (Homo sapiens, UniProt Q00987)
T1 construct: GST-MDM2
Experiment: fluorescence polarization competitive binding assay (PMDM6-F tracer); also cellular thermal shift assay in MCF-7 and MDA-MB-231 cells

T1 sequence (Q00987 whole entry): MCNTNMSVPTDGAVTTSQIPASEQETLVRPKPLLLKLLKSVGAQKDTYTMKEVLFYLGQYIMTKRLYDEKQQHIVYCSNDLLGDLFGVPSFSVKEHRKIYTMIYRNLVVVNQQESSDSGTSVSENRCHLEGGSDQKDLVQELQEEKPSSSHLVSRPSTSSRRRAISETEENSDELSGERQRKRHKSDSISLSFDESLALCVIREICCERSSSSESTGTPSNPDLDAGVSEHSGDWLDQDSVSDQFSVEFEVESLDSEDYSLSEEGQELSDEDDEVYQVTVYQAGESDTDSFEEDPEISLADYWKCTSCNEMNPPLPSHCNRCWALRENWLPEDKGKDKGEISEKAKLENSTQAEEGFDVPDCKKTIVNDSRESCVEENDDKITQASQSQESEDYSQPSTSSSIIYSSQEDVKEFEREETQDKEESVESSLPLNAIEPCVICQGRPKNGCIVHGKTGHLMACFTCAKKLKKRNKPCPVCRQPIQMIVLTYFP

In the case of JapA, the pKi was 6.57.
